Key:
[1] = system: MALME-3M; settings: MALME-3M (Melanoma), 48 hours, SRB
[2] = system: A498; settings: A498 (Renal Cancer), 48 hours, SRB; for CC50: read-out: LC50
[3] = system: OVCAR-3; settings: OVCAR-3 (Ovarian Cancer), 48 hours, SRB; for CC50: read-out: LC50
[4] = system: SK-MEL-5; settings: SK-MEL-5 (Melanoma), 48 hours, SRB; for CC50: read-out: LC50
[5] = system: HOP-62; settings: HOP-62 (Non-Small Cell Lung Cancer), 48 hours, SRB; for CC50: read-out: LC50
[6] = system: UACC62; settings: UACC62 (Melanoma), 48 hours, SRB; for CC50: read-out: LC50
[7] = system: NCI-H23; settings: NCI-H23 (Non-Small Cell Lung Cancer), 48 hours, SRB; for CC50: read-out: LC50
[8] = system: CCRF-CEM; settings: CCRF-CEM (Leukemia), 48 hours, SRB; for CC50: read-out: LC50
[9] = system: ACHN; settings: ACHN (Renal Cancer), 48 hours, SRB; for CC50: read-out: LC50
[10] = system: SNB-75; settings: SNB-75 (CNS Cancer), 48 hours, SRB; for CC50: read-out: LC50
[11] = system: TK-10; settings: TK-10 (Renal Cancer), 48 hours, SRB; for CC50: read-out: LC50
[12] = system: EKVX; settings: EKVX (Non-Small Cell Lung Cancer), 48 hours, SRB; for CC50: read-out: LC50
[13] = system: SK-MEL-28; settings: SK-MEL-28 (Melanoma), 48 hours, SRB
[14] = system: IGROV1; settings: IGROV1 (Ovarian Cancer), 48 hours, SRB; for CC50: read-out: LC50
[15] = system: SF-268; settings: SF-268 (CNS Cancer), 48 hours, SRB; for CC50: read-out: LC50
[16] = system: OVCAR-5; settings: OVCAR-5 (Ovarian Cancer), 48 hours, SRB; for CC50: read-out: LC50
[17] = system: RPMI-8226; settings: RPMI-8226 (Leukemia), 48 hours, SRB; for CC50: read-out: LC50
[18] = system: K-562; settings: K-562 (Leukemia), 48 hours, SRB
[19] = system: SK-OV-3; settings: SK-OV-3 (Ovarian Cancer), 48 hours, SRB; for CC50: read-out: LC50
[20] = system: HT29; settings: HT29 (Colon Cancer), 48 hours, SRB; for CC50: read-out: LC50
[21] = system: MDA-MB-231/ATCC; settings: MDA-MB-231/ATCC (Breast Cancer), 48 hours, SRB; for CC50: read-out: LC50
[22] = system: A549/ATCC; settings: A549/ATCC (Non-Small Cell Lung Cancer), 48 hours, SRB; for CC50: read-out: LC50
[23] = system: SK-MEL-2; settings: SK-MEL-2 (Melanoma), 48 hours, SRB; for CC50: read-out: LC50
[24] = system: NCI-H226; settings: NCI-H226 (Non-Small Cell Lung Cancer), 48 hours, SRB; for CC50: read-out: LC50
[25] = system: KM12; settings: KM12 (Colon Cancer), 48 hours, SRB; for CC50: read-out: LC50

CN(C)c1cccc2c(S(=O)(=O)NCCCCCCCCCCOc3ccc4c(c3)[N+]([O-])=C3C4=C[C@@]45NC(=O)C6(CCCN6C4=O)CC5C3(C)C)cccc12 (some centres unmarked) [Dansyl Analogue]
GI50 [1]: 0.426 µM | TGI [1]: 2.11 µM | GI50 [2]: 0.25 µM | TGI [2]: 1.01 µM | CC50 [2]: 4.4 µM | GI50 [3]: 0.201 µM | TGI [3]: 0.413 µM | CC50 [3]: 0.849 µM | GI50 [4]: 0.373 µM | TGI [4]: 1.47 µM | CC50 [4]: 3.84 µM | GI50 [5]: 2.38 µM | TGI [5]: 4.64 µM | CC50 [5]: 9.02 µM | GI50 [6]: 0.565 µM | TGI [6]: 1.88 µM | CC50 [6]: 4.88 µM | GI50 [7]: 0.581 µM | TGI [7]: 2.48 µM | CC50 [7]: 9.05 µM | GI50 [8]: 0.246 µM | TGI [8]: >100 µM | CC50 [8]: > 100 µM | GI50 [9]: 0.736 µM | TGI [9]: 2.7 µM | CC50 [9]: 8.56 µM | GI50 [10]: 0.273 µM | TGI [10]: 0.93 µM | CC50 [10]: 3.43 µM | GI50 [11]: 0.716 µM | TGI [11]: 2.81 µM | CC50 [11]: 9.66 µM | GI50 [12]: 0.54 µM | TGI [12]: 3.63 µM | CC50 [12]: 37 µM | GI50 [13]: 0.282 µM | TGI [13]: 0.678 µM | GI50 [14]: 0.272 µM | TGI [14]: 0.695 µM | CC50 [14]: 3.39 µM | GI50 [15]: 0.282 µM | TGI [15]: 0.853 µM | CC50 [15]: 3.69 µM | GI50 [16]: 1.46 µM | TGI [16]: 2.96 µM | CC50 [16]: 5.97 µM | GI50 [17]: 0.282 µM | TGI [17]: >100 µM | CC50 [17]: > 100 µM | TGI [18]: 64.4 µM | GI50 [19]: 1.65 µM | TGI [19]: 4.13 µM | CC50 [19]: 10.8 µM | GI50 [20]: 0.454 µM | TGI [20]: 1.51 µM | CC50 [20]: 3.96 µM | GI50 [21]: 0.242 µM | TGI [21]: 0.584 µM | CC50 [21]: 40.5 µM | GI50 [22]: 2.17 µM | TGI [22]: 5.37 µM | CC50 [22]: 18.1 µM | GI50 [23]: 1.07 µM | TGI [23]: 3.23 µM | CC50 [23]: 9.82 µM | GI50 [24]: 1.03 µM | TGI [24]: 3.03 µM | CC50 [24]: 8.93 µM | GI50 [25]: 1.25 µM | TGI [25]: 2.88 µM | CC50 [25]: 6.6 µM

CC1(C)C=Cc2c(ccc3c4c(n(O)c23)C(C)(C)C2CC35CCCN3C(=O)C2(NC5=O)C4SCC(NC(=O)CCC(N)C(=O)O)C(=O)NCC(=O)O)O1 (centres unmarked) [Glutathione Adduct]
GI50 [1]: 0.419 µM | TGI [1]: 3.1 µM | CC50 ([1]; read-out: LC50): 25.1 µM | GI50 [2]: 0.804 µM | TGI [2]: 1.83 µM | CC50 [2]: 4.16 µM | GI50 [3]: 0.735 µM | TGI [3]: 1.52 µM | CC50 [3]: 3.13 µM | GI50 [4]: 0.826 µM | TGI [4]: 1.86 µM | CC50 [4]: 4.17 µM | GI50 [5]: 6.67 µM | TGI [5]: 1.38 µM | CC50 [5]: 28.6 µM | GI50 [6]: 0.649 µM | TGI [6]: 1.72 µM | CC50 [6]: 4.56 µM | GI50 [7]: 1.09 µM | TGI [7]: 3.07 µM | CC50 [7]: 14.9 µM | GI50 [8]: 0.672 µM | TGI [8]: 2.03 µM | CC50 [8]: 35 µM | GI50 [9]: 0.961 µM | TGI [9]: 3.22 µM | CC50 [9]: 12.3 µM | GI50 [10]: 0.896 µM | TGI [10]: 2.45 µM | CC50 [10]: 8.47 µM | GI50 [11]: 1.09 µM | TGI [11]: 5.46 µM | CC50 [11]: 17.4 µM | GI50 [12]: 1.11 µM | TGI [12]: 5.4 µM | CC50 [12]: 18.9 µM | GI50 [13]: 0.985 µM | TGI [13]: 1.95 µM | CC50 ([13]; read-out: LC50): 3.87 µM | GI50 [14]: 1.06 µM | TGI [14]: 2.81 µM | CC50 [14]: 11.9 µM | GI50 [15]: 1.13 µM | TGI [15]: 2.88 µM | CC50 [15]: 10.9 µM | GI50 [16]: 0.971 µM | TGI [16]: 3.03 µM | CC50 [16]: 12 µM | GI50 [17]: 0.159 µM | TGI [17]: 1.14 µM | CC50 [17]: > 50 µM | GI50 [18]: 1.01 µM | TGI [18]: 4.66 µM | CC50 ([18]; read-out: LC50): > 50 µM | GI50 [19]: 1.3 µM | TGI [19]: 5.06 µM | CC50 [19]: 16.1 µM | GI50 [20]: 0.9 µM | TGI [20]: 2.01 µM | CC50 [20]: 4.51 µM | GI50 [21]: 0.931 µM | TGI [21]: 3.68 µM | CC50 [21]: 14.7 µM | GI50 [22]: 1.37 µM | TGI [22]: 3.94 µM | CC50 [22]: 15.8 µM | GI50 [23]: 0.877 µM | TGI [23]: 2.44 µM | CC50 [23]: 10.9 µM | GI50 [24]: 0.802 µM | TGI [24]: 2.29 µM | CC50 [24]: 8.33 µM | GI50 [25]: 0.979 µM | TGI [25]: 1.91 µM | CC50 [25]: 3.73 µM

From patent publication US20110105515A1, “TARGETING THE ONCOPROTEIN NUCLEOPHOSMIN” (President and Fellows of Harvard College, priority 2007, published 2011)
